Source: US10369124B2, “Dendrimer compositions and their use in treatment of diseases of the eye” (The Johns Hopkins University, priority 2014, dated 2019)

What was measured:
[1] = tested on: Iba-1+ microglia/macrophages in retina; experiment: Retinal biodistribution of D-Cy5 by immunohistochemistry and confocal microscopy in ischemia/reperfusion (I/R) injury; details: mouse, in vivo
Experimental: Animals & Ischemia reperfusion (I/R) injury. All procedures involving the animals conformed to the ARVO Statement for the Use of Animals in Ophthalmic and Vision Research. BALB/c albino mice, each weighing ˜25 grams, housed in Wilmer animal facility at Johns Hopkins were used for transport as well as I/R studies. All surgeries were performed under ketamine (100 mg/Kg) and Xylazine (10 mg/kg) peritoneal anaesthesia. Six mice were used in each group at each time point. I/R injury was performed in the left eye by following the procedure described elsewhere. Briefly, the anterior chamber was cannulated with 30 gauze needle attached to a line infusing saline. The saline system is mounted on to a custom-made saline reservoir and elevated to certain height (calibrated to 90 mm Hg). The IOP was elevated to 90 mm Hg for 90 minutes and I/R injury and shut off of choroidal circulation was evidenced by blanching of the posterior segment via fundus examination through the operating microscope. After ischemia, the needle was immediately withdrawn for immediate blood reperfusion. The right eye had no I/R injury and served as control.
Dendrimer injection and Animal sacrifice. Six days post I/R injury, BALB/c mice were injected with dendrimer either intravitreally or intravenously. […]
Immunohistochemistry and confocal microscopy. […] Sections were analysed on a Zeiss 510 confocal microscope. […]

[2] = Quantitative biodistribution of D-Cy5 in vital organs by fluorescence spectroscopy (FLS); format: in vivo, BALB/c mice; details: IV
Experimental: Biodistribution analysis of D-Cy5 in vital organs. Twelve BALB-C mice weighing ˜25 gr BW were used for this study. Four animals were sacrificed at each time point: 24 hours, 72 hours and 21 days. Each mouse was injected via femoral vein with 600 μg of D-Cy5 in 100 μL of sterile PBS. At respective time point, the animals were euthanized and vital organs (heart, lungs, spleen, kidney, liver and eyes) were harvested immediately and organ wet weights were noted. Organs were snap frozen on dry ice, and stored at −80° C. until analysis. Upon analysis, the tissues were thawed and approximately 100-150 mg of tissue were measured and homogenized with 1 ml of MeOH in low DNA binding tubes (Eppendorf AG, Hamburg, Germany) using stainless steel bead and tissue homogenizer (Tissuelyzer LT, QIAGEN, Hilden, Germany) resulting in a pulpy tissue suspension. The suspension was sonicated for 30 minutes and appropriate volumes containing 100 mg of tissue were placed in different low DNA binding vials and diluted with methanol to 1 ml so that the same amount of tissue and same volume was analyzed for each sample. The samples were centrifuged at 10,000 rpm for 10 minutes at 4° C. resulting in supernatants, which were subjected to fluorescence spectroscopy (FLS).
Quantitative biodistribution of D-Cy5 in vital organs. Quantitative biodistribution in vital organs (liver, kidney, spleen, heart, lungs and serum) and kinetics of D-Cy5 injected intravenously into animals with I/R injury was assessed using FLS (fluorescence spectroscopy) method. For analysis, weight of tissues was measured before being homogenized and D-Cy5 was extracted using methanol as described previously by Lesniak et al. (Molecular pharmaceutics 10 (12), 4560-4571). The D-Cy conjugates were intact stable in human plasma at 37° C. and in vivo, and also the applied methanol extraction protocol yielded best recovery of 96%. The methanol extracts were subjected to fluorescence measurements for emission values using fluorescence spectrophotometer. […]

[3] = tested on: choroidal neovascularization (CNV); experiment: CNV area in lipid (HpODE) injected CNV rat model, choroidal flat mounts; format: in vivo, SD rats; details: systemic, 20 mg/kg on NAC basis, assessed Day 10
Experimental: CNV rat model. Male SD rats of ˜300 grams each were chosen for this study. Lipid 3(S)-hydroperoxy-9Z,11E-octadecadienoic acid (HpODE) (Cayman Chemicals, Michigan, USA.) was dissolved in cold borate buffer at a concentration of 500 μg/33 μL. Two μL of lipid was injected sub-retinal on day 1 forming a bleb in retina. By day 3 the lipid bleb was gone and retinal degeneration began. At day 7 post-lipid injection, neovascularization from choroid (CNV) begins to form and inflammation occurs in retina and choroid as well as neovascularization in retina (RNV). This model causes damage to both choroid and retina and has characteristics of both dry and wed AMD forms (FIG. 12A).
Effect of N-acetal-Cysteine (NAC) on CNV model. A combination of D-NAC (dendrimer-NAC; 10 mg/kg on a NAC basis) and 6 mg of D-Cy5 were injected intravenously via penile vein on day 3 post lipid injection and animals were sacrificed on day 7 post injection. The animals injected with D-Cy5 and PBS served as controls. […] The confocal images choroids of D-NAC treated and control groups were analyzed for CNV area measurements using Image-J software. […]
D-NAC was administered on Day 3 (two days after lipid administration), and on day 5 and day 7 at 20 mg/kg on a NAC basis. […] CNV areas were assessed using morphometric analysis (yellow delineation) in Image-J software. […] Values were analyzed using Mann-Whitney t-test with n=12 and P<0.001

[4] = tested on: IL-1β, IL-6, MCP-1, TNFα, IL-10; experiment: Choroid cytokine levels by ELISA in CNV rat model; format: in vivo, SD rats; details: n=8 choroids/group
Experimental: FIGS. 16A-16C depict that the choroids from the different groups were analyzed using ELISA (n=8 choroids/group).
(§1) CNV rat model. Male SD rats of ˜300 grams each were chosen for this study. Lipid 3(S)-hydroperoxy-9Z,11E-octadecadienoic acid (HpODE) (Cayman Chemicals, Michigan, USA.) was dissolved in cold borate buffer at a concentration of 500 μg/33 μL. Two μL of lipid was injected sub-retinal on day 1 forming a bleb in retina.
The effect of D-NAC choroidal inflammation was assessed in a blinded manner, by measuring proinflammatory (IL-1β, IL-6, MCP-1-monocyte chemoattractant, and TNFα) and anti-inflammatory cytokine levels (IL-10).

[5] = tested on: IL-1β, IL-6, MCP-1, TNFα, IL-10; experiment: Retina cytokine levels by ELISA in CNV rat model; format: in vivo, SD rats; details: n=8/group
Experimental: as §1
The effect of D-NAC on retinal inflammation was assessed in a blinded manner, by measuring proinflammatory (IL-1β, IL-6, MCP-1, and TNFα) and anti-inflammatory (IL-10) cytokine levels.

Row | Structure (SMILES) | retinal clearance [1] | retinal clearance ([1]; iv) | accumulation in kidney ([2]; 24 hours) | fluorescent signal in other organs (than kidney) ([2]; 24 hours) | level in any of the organs ([2]; 72 hours) | effect on CNV areas compared to PBS [3] | proinflammatory cytokines in choroid [4] | proinflammatory cytokines in retina [5]
1 | CCN1/C(=C/C=C/C=C/C2=[N+](CCCCCC(=O)O)c3ccc(S(=O)(=O)O)cc3C2(C)C)C(C)(C)c2cc(S(=O)(=O)[O-])ccc21 [free Cy5] | completely cleared | cleared | 0.82±2.93 % of injected dose (ID)/organ | could not detect any fluorescent signals | not detectable |  |  | 
2 | CC(=O)N[C@@H](CS)C(=O)O [free NAC, N-acetyl cysteine] |  |  |  |  |  | some decrease that was not significant | not effective | not effective
